Consider 20 compounds from patent US20190048016A1, “SUBSTITUTED BRIDGED UREA ANALOGS AS SIRTUIN MODULATORS” (GlaxoSmithKline Intellectual Property(No.2)Limited, priority 2014, published 2019).

Molecules are shown by their SMILES. Where a name gives a salt, the structure may show the parent alone.

For this assay, the target named is T1, SIRT1 (Homo sapiens, UniProt Q96EB6).
T1 sequence (Q96EB6 1-747): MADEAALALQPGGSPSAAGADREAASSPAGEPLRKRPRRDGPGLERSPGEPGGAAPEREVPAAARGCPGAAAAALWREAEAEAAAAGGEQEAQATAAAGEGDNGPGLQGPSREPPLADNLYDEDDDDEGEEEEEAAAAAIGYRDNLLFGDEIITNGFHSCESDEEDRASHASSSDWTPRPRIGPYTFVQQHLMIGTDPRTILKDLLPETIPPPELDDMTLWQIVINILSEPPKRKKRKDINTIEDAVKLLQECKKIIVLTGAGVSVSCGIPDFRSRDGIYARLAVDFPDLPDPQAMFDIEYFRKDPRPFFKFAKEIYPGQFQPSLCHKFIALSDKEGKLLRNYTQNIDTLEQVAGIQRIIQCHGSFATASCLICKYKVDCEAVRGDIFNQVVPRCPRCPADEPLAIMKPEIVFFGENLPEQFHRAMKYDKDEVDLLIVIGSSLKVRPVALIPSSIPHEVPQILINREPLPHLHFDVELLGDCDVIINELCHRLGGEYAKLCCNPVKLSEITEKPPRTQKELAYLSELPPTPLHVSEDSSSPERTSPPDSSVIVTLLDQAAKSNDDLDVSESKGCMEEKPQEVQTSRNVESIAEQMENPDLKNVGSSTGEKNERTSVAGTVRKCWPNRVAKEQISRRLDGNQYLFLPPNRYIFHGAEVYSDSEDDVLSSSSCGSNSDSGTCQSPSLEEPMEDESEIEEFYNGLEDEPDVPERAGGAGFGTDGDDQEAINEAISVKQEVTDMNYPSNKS
The experiment in a line: Trp mass spectrometry assay of SIRT1 activation (deacetylation of Ac-R-H-K-K(Ac)-W-NH2 peptide, OAADPR formation). The format is biochemical. The note with it: Trp peptide 0.5 μM, 120 μM βNAD+, 10 nM SIRT1, 25 min, 25° C.; for Emax: 25 min, read-out: TRP MAX RESP (percent maximum fold activation relative to control = 100%). Summed up: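 10 nM His-tagged SIRT1 (E. coli expressed) with 0.5 μM Ac-RHKK(Ac)W-NH2 and 120 μM βNAD+, 25 min at 25° C, HEPES pH 7.5, […]; formic acid stop. OAADPR or deacetylated peptide measured by mass spectrometry; EC1.5 = concentration giving 150% activity versus DMSO control; maximum activation also reported.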

Regarding `C[C@@H](NC(=O)c1ccc2c(n1)N(C(=O)Nc1cc(OC[C@H](O)CO)ccn1)[C@H]1CCCN2C1)C(F)(F)F` [Example 34, (9S)-N10-(4-((R)-2,3-dihydroxypropoxy)pyridin-2-yl)-N2-((R)-1,1,1-trifluoropropan-2-yl)-8,9-dihydro-6H-5,9-methanopyrido[2,3-b][1,4]diazocine-2,10(7H)-dicarboxamide], the Emax was no less than 150% and the “TRP Activity (EC1.5, concentration of compound required to increase SIRT1 activity by 50% over control)” value was “A (EC1.5<1 μM)”.

Regarding `Cc1ccc2c(NC(=O)N3c4nc(C(=O)N[C@H](C)C(F)(F)F)ccc4N4CCC[C@H]3C4)n[nH]c2n1` [Example 43, (9S)-N10-(6-methyl-1H-pyrazolo[3,4-b]pyridin-3-yl)-N2-((R)-1,1,1-trifluoropropan-2-yl)-8,9-dihydro-6H-5,9-methanopyrido[2,3-b][1,4]diazocine-2,10(7H)-dicarboxamide], the Emax is no less than 150% and the “TRP Activity (EC1.5, concentration of compound required to increase SIRT1 activity by 50% over control)” value is recorded as “A (EC1.5<1 μM)”. For the compound `Cc1ccc2c(NC(=O)N3c4nc(C(=O)NC(CO)C(F)(F)F)ccc4N4CCC[C@H]3C4)n[nH]c2n1` (single isomer, unassigned) [Example 45], the Emax was no less than 150% and the “TRP Activity (EC1.5, concentration of compound required to increase SIRT1 activity by 50% over control)” value is “B (EC1.5 1-25 μM)”. Taken in the same sequence, the figures for `O=C(NCC(F)(F)F)c1ccc2c(n1)N(C(=O)Nc1ccccn1)[C@H]1CCCN2C1` [Example 37, (9S)-N10-(pyridin-2-yl)-N2-(2,2,2-trifluoroethyl)-8,9-dihydro-6H-5,9-methanopyrido[2,3-b][1,4]diazocine-2,10(7H)-dicarboxamide] were no less than 150% and “A (EC1.5<1 μM)”. `O=C(Nc1ccccn1)N1c2nc(N3CCC(C(F)(F)F)C3)ccc2N2CCC[C@H]1C2` (single isomer, unassigned) [Example 31, hydrochloride]: under “hydrochloride”, the “TRP Activity (EC1.5, concentration of compound required to increase SIRT1 activity by 50% over control)” value is “A (EC1.5<1 μM)”. With `O=C(Nc1cnc(OC[C@@H](O)CO)cn1)N1c2nc(-c3cccc(C(F)(F)F)c3)c(Cl)cc2N2CCC[C@H]1C2` [Example 77, (9S)-3-chloro-N-(5-((S)-2,3-dihydroxypropoxy)pyrazin-2-yl)-2-(3-(trifluoromethyl)phenyl)-8,9-dihydro-6H-5,9-methanopyrido[2,3-b][1,4]diazocine-10(7H)-carboxamide], the Emax was no less than 150% and the “TRP Activity (EC1.5, concentration of compound required to increase SIRT1 activity by 50% over control)” value is “A (EC1.5<1 μM)”. The like results for `O=C(Nc1cnc(OC[C@H](O)CO)cn1)N1c2nc(-c3cccc(C(F)(F)F)c3)c(Cl)cc2N2CCC[C@H]1C2` [Example 73, (9S)-3-chloro-N-(5-((R)-2,3-dihydroxypropoxy)pyrazin-2-yl)-2-(3-(trifluoromethyl)phenyl)-8,9-dihydro-6H-5,9-methanopyrido[2,3-b][1,4]diazocine-10(7H)-carboxamide] were, in that order, no less than 150% and “A (EC1.5<1 μM)”.

Regarding `O=C(Nc1ccncn1)N1c2nc(-c3ccnc(C(F)(F)F)c3)ccc2N2CCC[C@H]1C2` [Example 9, (9S)-N-(pyrimidin-4-yl)-2-(2-(trifluoromethyl)pyridin-4-yl)-8,9-dihydro-6H-5,9-methanopyrido[2,3-b][1,4]diazocine-10(7H)-carboxamide], the Emax was no less than 150% and the “TRP Activity (EC1.5, concentration of compound required to increase SIRT1 activity by 50% over control)” value is reported as “A (EC1.5<1 μM)”. For `O=C(Nc1cnccn1)c1cc2c(nc1N1CCCC(C(F)(F)F)C1)N[C@H]1CCCN2C1` (single isomer, unassigned) [Example 59], the Emax was no more than 150%. In the case of `O=C(Nc1ccc(OC[C@H](O)CO)cn1)N1c2nc(-c3cccc(C(F)(F)F)c3)c(Cl)cc2N2CCC[C@H]1C2` [Example 87, (9S)-3-chloro-N-(5-((R)-2,3-dihydroxypropoxy)pyridin-2-yl)-2-(3-(trifluoromethyl)phenyl)-8,9-dihydro-6H-5,9-methanopyrido[2,3-b][1,4]diazocine-10(7H)-carboxamide], the Emax was no less than 150% and the “TRP Activity (EC1.5, concentration of compound required to increase SIRT1 activity by 50% over control)” value is recorded as “A (EC1.5<1 μM)”.

`O=C(Nc1cc(OC[C@@H](O)CO)ncn1)N1c2nc(-c3cccc(C(F)(F)F)c3)c(Cl)cc2N2CCC[C@H]1C2` [Example 86]: the Emax was no less than 150% and the “TRP Activity (EC1.5, concentration of compound required to increase SIRT1 activity by 50% over control)” value is reported as “A (EC1.5<1 μM)”. Regarding `O=C(Nc1cccnn1)N1c2nc(-c3ccnc(C(F)(F)F)c3)ccc2N2CCC[C@H]1C2` [Example 6, (9S)-N-(pyridazin-3-yl)-2-(2-(trifluoromethyl)pyridin-4-yl)-8,9-dihydro-6H-5,9-methanopyrido[2,3-b][1,4]diazocine-10(7H)-carboxamide], the Emax is no less than 150% and the “TRP Activity (EC1.5, concentration of compound required to increase SIRT1 activity by 50% over control)” value is recorded as “A (EC1.5<1 μM)”. The like results for `Cc1cc(-c2ccc3c(n2)N(C(=O)Nc2nc(C)c(C)s2)[C@H]2CCCN3C2)ccn1` [Example 19, (9S)-N-(4,5-dimethylthiazol-2-yl)-2-(2-methylpyridin-4-yl)-8,9-dihydro-6H-5,9-methanopyrido[2,3-b][1,4]diazocine-10(7H)-carboxamide] were, in that order, no less than 150% and “A (EC1.5<1 μM)”. The like results for `Cc1cc(-c2ccc3c(n2)N(C(=O)Nc2ccc4nn(C)cc4c2)[C@H]2CCCN3C2)ccn1` [Example 15, (9S)-N-(2-methyl-2H-indazol-5-yl)-2-(2-methylpyridin-4-yl)-8,9-dihydro-6H-5,9-methanopyrido[2,3-b][1,4]diazocine-10(7H)-carboxamide] were, in that order, no less than 150% and “A (EC1.5<1 μM)”. Taken in the same sequence, the figures for `Cc1ncc(-c2ccnc(NC(=O)N3c4nc(C(=O)N[C@H](C)C(F)(F)F)c(Cl)cc4N4CCC[C@H]3C4)c2)o1` [Example 51, (9S)-3-chloro-N10-(4-(2-methyloxazol-5-yl)pyridin-2-yl)-N2-((R)-1,1,1-trifluoropropan-2-yl)-8,9-dihydro-6H-5,9-methanopyrido[2,3-b][1,4]diazocine-2,10(7H)-dicarboxamide] were no less than 150% and “A (EC1.5<1 μM)”. Consider `Cc1ncc(-c2ccnc(NC(=O)N3c4nc(C(=O)N[C@H](C)C(F)(F)F)ccc4N4CCC[C@H]3C4)c2)s1` [Example 44, (9S)-N10-(4-(2-methylthiazol-5-yl)pyridin-2-yl)-N2-((R)-1,1,1-trifluoropropan-2-yl)-8,9-dihydro-6H-5,9-methanopyrido[2,3-b][1,4]diazocine-2,10(7H)-dicarboxamide], for which the Emax was no less than 150% and the “TRP Activity (EC1.5, concentration of compound required to increase SIRT1 activity by 50% over control)” value is reported as “A (EC1.5<1 μM)”. Turning to `O=C(Nc1ccc(OC[C@H](O)CO)nc1)N1c2nc(-c3cccc(C(F)(F)F)c3)c(Cl)cc2N2CCC[C@H]1C2` [Example 79, (9S)-3-chloro-N-(6-((R)-2,3-dihydroxypropoxy)pyridin-3-yl)-2-(3-(trifluoromethyl)phenyl)-8,9-dihydro-6H-5,9-methanopyrido[2,3-b][1,4]diazocine-10(7H)-carboxamide], the Emax was no less than 150% and the “TRP Activity (EC1.5, concentration of compound required to increase SIRT1 activity by 50% over control)” value was “A (EC1.5<1 μM)”.

As to `Cc1cc(C(=O)N[C@H](C)C(F)(F)F)nc2c1N1CCC[C@@H](C1)N2C(=O)Nc1cc(OC[C@H](O)CO)ccn1` [Example 57, (9S)-N10-(4-((R)-2,3-dihydroxypropoxy)pyridin-2-yl)-4-methyl-N2-((R)-1,1,1-trifluoropropan-2-yl)-8,9-dihydro-6H-5,9-methanopyrido[2,3-b][1,4]diazocine-2,10(7H)-dicarboxamide], the Emax is no less than 150% and the “TRP Activity (EC1.5, concentration of compound required to increase SIRT1 activity by 50% over control)” value is listed as “A (EC1.5<1 μM)”.

In the case of `O=C(Nc1ccnc(OC[C@@H](O)CO)n1)N1c2nc(-c3cccc(C(F)(F)F)c3)c(Cl)cc2N2CCC[C@H]1C2` [Example 81, (9S)-3-chloro-N-(2-((S)-2,3-dihydroxypropoxy)pyrimidin-4-yl)-2-(3-(trifluoromethyl)phenyl)-8,9-dihydro-6H-5,9-methanopyrido[2,3-b][1,4]diazocine-10(7H)-carboxamide], the Emax was no less than 150% and the “TRP Activity (EC1.5, concentration of compound required to increase SIRT1 activity by 50% over control)” value is listed as “A (EC1.5<1 μM)”.

As to `Cc1cc(-c2ccc3c(n2)N(C(=O)Nc2cncc(C)n2)[C@H]2CCCN3C2)ccn1` [Example 21], the Emax is no less than 150% and the “TRP Activity (EC1.5, concentration of compound required to increase SIRT1 activity by 50% over control)” value is reported as “B (EC1.5 1-25 μM)”.
